For series [1], the system named is D-aminoacylase. The series is described as follows: Substrate specificity of the D-aminoacylase (amino acid produced, assayed by TNBS or HPLC method). Type of series: biochemical, Hypomyces mycophilus. As to conditions: for catalytic activity of the D-aminoacylase for the substrate: 20 mM substrate, 50 mM Tris-HCl pH 7.5, 30° C., 20 minutes; for substrate specificity: the enzyme acts on / not on the substrate: purified enzyme, property (c). The protocol:
The substrate specificity of the D-aminoacylase of the present invention can be tested by the following procedure. For example, an enzyme solution (1 μl) is mixed and incubated with 50 mM Tris-HCl (pH 7.5) buffer (total volume: 1.0 ml) containing 20 mM substrate (various N-acetyl-D-amino acids) at 30° C. for 20 minutes. By measuring the amounts of amino acid synthesized by this reaction, enzymatic activities for respective substrates can be compared with each other. Assay for amino acid is performed by TNBS (trinitrobenzenesulfonic acid) method or HPLC method. For example, D-tryptophan, which may be used as a standard product in the reaction, is assayed for a comparison of enzymatic activity; by taking the amount of enzyme required for the production of 1 μmol D-tryptophan as 1 unit (or U), the reactivity is compared between different enzymes or is compared with the reactivity assayed for other types of amino acids.

The test system of series [2] is D-aminoacylase. The experiment in a line: Stabilizer/activator effect on D-aminoacylase activity. Type of series: biochemical, Hypomyces mycophilus. An excerpt: (f) stabilizer: the enzyme activity is stabilized by reducing agents and activated by ICH2CONH2.
The conditions of series [3]: in vivo; cited from earlier work.
Series [4] in a line: Optimal reaction temperature of the purified D-aminoacylase. As to conditions: reaction at pH 7.5. Type of series: biochemical, Hypomyces mycophilus. On the procedure:
(e) optimal temperature: for the reaction at pH 7.5, the enzyme activity is optimal at about 45° C.; and […]

Consider 15 molecules from patent US6780619B2, “D-aminoacylase and gene encoding the same” (priority 2000, dated 2004).

As to `CC(=O)N[C@H](C(=O)O)C(C)C` [N-acetyl-L-valine], in the series on D-aminoacylase [1], the “catalytic activity of the D-aminoacylase for the substrate” value (from here on “catalytic activity of the D-aminoacylase”) is on record as “substantially no catalytic activity” and the “substrate specificity: the enzyme acts on / not on the substrate” value is given as “not on”.

As to `CC(=O)N[C@H](Cc1ccccc1)C(=O)O` [N-acetyl-D-phenylalanine], in the series with D-aminoacylase [1], the “catalytic activity of the D-aminoacylase” value is given as “very efficiently catalyzes the reaction” and the “substrate specificity: the enzyme acts on / not on the substrate” value is listed as “acts on”.

Turning to `CC(=O)N[C@H](CC(C)C)C(=O)O` [N-acetyl-D-leucine], in the series on D-aminoacylase [1], the “catalytic activity of the D-aminoacylase” value is recorded as “efficiently catalyzes the reaction” and the “substrate specificity: the enzyme acts on / not on the substrate” value is on record as “acts on”.

Turning to `CC(=O)N[C@@H](CC(C)C)C(=O)O` [N-acetyl-L-leucine], in the series with D-aminoacylase [1], the “catalytic activity of the D-aminoacylase” value is “substantially no catalytic activity” and the “substrate specificity: the enzyme acts on / not on the substrate” value is on record as “not on”.

On to `CSCC[C@H](NC(C)=O)C(=O)O` [N-acetyl-L-methionine], for which, in the series with D-aminoacylase [1], the “catalytic activity of the D-aminoacylase” value is given as “substantially no catalytic activity” and the “substrate specificity: the enzyme acts on / not on the substrate” value was “not on”.

In the case of `NC(=O)CI` [ICH2CONH2], in the series on D-aminoacylase [2], the “effect on D-aminoacylase enzyme activity” value was “activated”.

Take `CC(=O)N[C@H](Cc1c[nH]c2ccccc12)C(=O)O` [N-acetyl-D-tryptophan]: in the series on D-aminoacylase [1], the “catalytic activity of the D-aminoacylase” value is on record as “efficiently catalyzes the reaction” and the “substrate specificity: the enzyme acts on / not on the substrate” value was “acts on”.

With `CC(=O)N[C@@H](C(=O)O)C(C)C` [N-acetyl-D-valine], in the series on D-aminoacylase [1], the “catalytic activity of the D-aminoacylase” value is “catalyzes the reaction” and the “substrate specificity: the enzyme acts on / not on the substrate” value is recorded as “acts on”.

`CC(=O)N[C@@H](Cc1c[nH]c2ccccc12)C(=O)O` [N-acetyl-L-tryptophan]: in the series on D-aminoacylase [1], the “catalytic activity of the D-aminoacylase” value is given as “substantially no catalytic activity” and the “substrate specificity: the enzyme acts on / not on the substrate” value is “not on”.

Take `O=C(CCl)N[C@H](Cc1ccccc1)C(=O)O` [N-chloroacetyl-D-phenylalanine]: the “catalytic activity of the D-aminoacylase” value in the series on D-aminoacylase [1] is reported as “very efficiently catalyzes the reaction”.

In the case of `O=C1CCC(N2C(=O)c3ccccc3C2=O)C(=O)N1` [D(R)-form thalidomide, thalidomide], the teratogenic activity result in series [3] is “no teratogenic activity”.

On to `CC(=O)N[C@@H](Cc1ccccc1)C(=O)O` [N-acetyl-L-phenylalanine], for which, in the series on D-aminoacylase [1], the “catalytic activity of the D-aminoacylase” value is given as “substantially no catalytic activity” and the “substrate specificity: the enzyme acts on / not on the substrate” value is given as “not on”.

On to `O=C1CCC(N2C(=O)c3ccccc3C2=O)C(=O)N1` [L(S)-form, thalidomide], for which the teratogenic activity entry in series [3] was “strong teratogenicity”.

On to `CSCC[C@@H](NC(C)=O)C(=O)O` [N-acetyl-D-methionine], for which, in the series on D-aminoacylase [1], the “catalytic activity of the D-aminoacylase” value was “efficiently catalyzes the reaction” and the “substrate specificity: the enzyme acts on / not on the substrate” value is on record as “acts on”.

B1: D-aminoacylase: D-aminoacylase purified from Hypomyces mycophilus IFO 6785, comprising the amino acid sequence of SEQ ID NO: 2 (protein)
chain: MRTEILFHSATVITGDEAAQPFVADVLVSKGLIAKIGNPGSINATPDTRHLDVTGYILSPGFIDMHAHSDLYLLSHPDHEAKITQGCTTEVVGQDGISYAPIRNVDQLRAIREQIAGWNGNPTDEECRTTLKGVGMFEWQTIGEYLDCLERNRTATNVAMLVPQGNLRLLACGPYDTPASAEEIQDQIQLLREAMAQGAVGMSSGLTYTPGMYASTSELASLCAALAQEFPGAFYAPHHRSYGFQAIESYAEMLDLGESTGCPIHLTHATLNFSENKGKAPVLISMVDKSLAAGVDVTLDTYPYLPGCTTLAALLPSWASAGGPQETLKRLEDAESREKIRIAVEIKGCDGGHGIPTNWDEIQIGTTNEPSIASYSGRRLSEVAQSVGKPTIEVFFEILQKDKLATSCIMHVGNEENVRQIMQHRVHMAGSDGILHGQTLHPRAYGTFTRYLGHYSRELSLVALPSMIAHLTSRPAKRLSVYPYRGLIAEGSAADIVVFNPETVKDMSTYEEPKVPSRGIRFVLVNGQIAVDEGKMTGTRGGKTLRRSTDGKVKARDE
Take B1: in series [4], the “optimal temperature of enzyme activity” value is “about 45 °C”.
